From publication PMC4890880 (ACS infectious diseases, 2016)
Read-outs that look alike come from different tables or passages of the source.

What was measured:
[1] = tested on: HepG2-A16-CD81EGFP cells; settings: for IC50: read-out: Tox_IC50, HepG2 cytotoxicity
[2] = tested on: Plasmodium berghei (Pb-Luc) exoerythrocytic-stage parasites; settings: for normalized signal at concentration 0.000508053 / normalized signal at concentration 0.00152416 / normalized signal at concentration 0.00457247 / normalized signal at concentration 0.0137174 / normalized signal at concentration 0.0411523 / normalized signal at concentration 0.123457 / normalized signal at concentration 0.37037 / normalized signal at concentration 1.11111 / normalized signal at concentration 3.33333 / normalized signal at concentration 10: fraction of control; for IC50: read-out: PbLuc_IC50
[3] = sheet 2nd round, maximal inhibition in dose response
[4] = sheet 2nd round, Pb-Luc exoerythrocytic stage, 10-point dose response, top concentration 10
[5] = second series of columns (replicate)

## C[C@@H]1CN([C@@H](C)CO)C(=O)c2ccccc2-c2ccccc2CO[C@@H]1CN(C)S(=O)(=O)Cc1ccccc1 [BRD-K06421369-001-01-0]
[1]; sheet 2nd round
  IC50: > 10 µM
[1]; [3]
  Tox_max_inhibition (%): 8.54%
[2]; first series of columns
  normalized signal at concentration 0.000508053: 1.055
  normalized signal at concentration 0.00152416: 1.041
  normalized signal at concentration 0.00457247: 0.8367
  normalized signal at concentration 0.0137174: 0.8756
  normalized signal at concentration 0.0411523: 0.8835
  normalized signal at concentration 0.123457: 1.014
  normalized signal at concentration 0.37037: 0.8794
  normalized signal at concentration 1.11111: 0.8244
  normalized signal at concentration 3.33333: 1.118
  normalized signal at concentration 10: 0.9941
[2]; [4]
  IC50: > 10 µM
[2]; [5]
  normalized signal at concentration 0.000508053: 0.9052
  normalized signal at concentration 0.00152416: 1.004
  normalized signal at concentration 0.00457247: 1.069
  normalized signal at concentration 0.0137174: 0.9457
  normalized signal at concentration 0.0411523: 0.8932
  normalized signal at concentration 0.123457: 1.033
  normalized signal at concentration 0.37037: 1.094
  normalized signal at concentration 1.11111: 1.104
  normalized signal at concentration 3.33333: 1.032
  normalized signal at concentration 10: 0.8304
[2]; [3]
  PbLuc_max_inhibition (%): 18%

## C[C@@H]1CN([C@@H](C)CO)C(=O)c2cccc(NC(=O)c3ccc(-c4nccs4)cc3)c2O[C@@H]1CN(C)C(=O)Nc1ccc(C(F)(F)F)cc1 [BRD-K43504903-001-01-1]
[1]; sheet "2nd round"
  IC50: > 10 µM
  Tox_max_inhibition (%): 21%
[2]; concentration 0.000508053, first series
  normalised signal at concentration 0.000508053 (first series): 0.8756
[2]; concentration 0.000508053, second series
  normalised signal at concentration 0.000508053 (second series): 0.7942
[2]; concentration 0.00152416, first series
  normalised signal at concentration 0.00152416 (first series): 0.8514
[2]; concentration 0.00152416, second series
  normalised signal at concentration 0.00152416 (second series): 0.7934
[2]; concentration 0.00457247, first series
  normalised signal at concentration 0.00457247 (first series): 0.8815
[2]; concentration 0.00457247, second series
  normalised signal at concentration 0.00457247 (second series): 0.6886
[2]; concentration 0.0137174, first series
  normalised signal at concentration 0.0137174 (first series): 0.7217
[2]; concentration 0.0137174, second series
  normalised signal at concentration 0.0137174 (second series): 0.708
[2]; concentration 0.0411523, first series
  normalised signal at concentration 0.0411523 (first series): 0.6989
[2]; concentration 0.0411523, second series
  normalised signal at concentration 0.0411523 (second series): 0.7835
[2]; concentration 0.123457, first series
  normalised signal at concentration 0.123457 (first series): 0.7701
[2]; concentration 0.123457, second series
  normalised signal at concentration 0.123457 (second series): 0.8493
[2]; concentration 0.37037, first series
  normalised signal at concentration 0.37037 (first series): 0.9239
[2]; concentration 0.37037, second series
  normalised signal at concentration 0.37037 (second series): 0.7292
[2]; concentration 1.11111, first series
  normalised signal at concentration 1.11111 (first series): 0.7039
[2]; concentration 1.11111, second series
  normalised signal at concentration 1.11111 (second series): 0.8779
[2]; concentration 3.33333, first series
  normalised signal at concentration 3.33333 (first series): 0.8563
[2]; concentration 3.33333, second series
  normalised signal at concentration 3.33333 (second series): 1.012
[2]; concentration 10, first series of dose columns
  normalised signal at concentration 10 (first series): 0.4042
[2]; concentration 10, second series of dose columns
  normalised signal at concentration 10 (second series): 0.5157
[2]; sheet "2nd round", Broad compounds, dose response top concentration 10
  IC50: > 10 µM
[2]; sheet "2nd round"
  PbLuc_max_inhibition (%): 60%

## COc1cccc(S(=O)(=O)N2CCCCN3[C@H](CO)[C@H](c4ccc(C#CCC(C)C)cc4)[C@H]3C2)c1 [BRD-K69197522-001-01-4]
[1]; sheet 2nd round
  IC50: > 10 µM
[1]; [3]
  Tox_max_inhibition (%): 6.65%
[2]; first series of columns
  normalized signal at concentration 0.000508053: 0.7703
  normalized signal at concentration 0.00152416: 0.9681
  normalized signal at concentration 0.00457247: 1.135
  normalized signal at concentration 0.0137174: 0.9046
  normalized signal at concentration 0.0411523: 0.9718
  normalized signal at concentration 0.123457: 0.7468
  normalized signal at concentration 0.37037: 1.034
  normalized signal at concentration 1.11111: 0.9136
  normalized signal at concentration 3.33333: 0.9728
  normalized signal at concentration 10: 0.6517
[2]; [4]
  IC50: > 10 µM
[2]; [5]
  normalized signal at concentration 0.000508053: 0.9237
  normalized signal at concentration 0.00152416: 0.8984
  normalized signal at concentration 0.00457247: 1.009
  normalized signal at concentration 0.0137174: 0.9117
  normalized signal at concentration 0.0411523: 0.9735
  normalized signal at concentration 0.123457: 1.068
  normalized signal at concentration 0.37037: 0.8113
  normalized signal at concentration 1.11111: 0.8704
  normalized signal at concentration 3.33333: 1.117
  normalized signal at concentration 10: 0.6736
[2]; [3]
  PbLuc_max_inhibition (%): 35%

## O=C(O)C[C@H]1CC[C@@H]2[C@H](COC[C@@H](O)CN2S(=O)(=O)c2ccc(Oc3ccccc3)cc2)O1 [BRD-K61788733-001-01-3]
[1]; sheet 2nd round
  IC50: > 10 µM
[1]; [3]
  Tox_max_inhibition (%): 4.62%
[2]; first series of columns
  normalized signal at concentration 0.000508053: 0.8641
  normalized signal at concentration 0.00152416: 0.8788
  normalized signal at concentration 0.00457247: 0.8741
  normalized signal at concentration 0.0137174: 0.9455
  normalized signal at concentration 0.0411523: 0.9154
  normalized signal at concentration 0.123457: 0.9561
  normalized signal at concentration 0.37037: 0.927
  normalized signal at concentration 1.11111: 1.099
  normalized signal at concentration 3.33333: 1.256
  normalized signal at concentration 10: 1.046
[2]; [4]
  IC50: > 10 µM
[2]; [5]
  normalized signal at concentration 0.000508053: 1.03
  normalized signal at concentration 0.00152416: 0.992
  normalized signal at concentration 0.00457247: 0.8804
  normalized signal at concentration 0.0137174: 0.7616
  normalized signal at concentration 0.0411523: 1.066
  normalized signal at concentration 0.123457: 0.77
  normalized signal at concentration 0.37037: 0.8648
  normalized signal at concentration 1.11111: 0.993
  normalized signal at concentration 3.33333: 1.071
  normalized signal at concentration 10: 1.076
[2]; [3]
  PbLuc_max_inhibition (%): 24%

## C[C@H]1CN([C@@H](C)CO)C(=O)c2cc(C#Cc3ccccc3)cnc2O[C@H]1CN(C)C(=O)c1ccccc1 [BRD-K12503654-001-01-1]
[1]; sheet 2nd round
  IC50: > 10 µM
[1]; [3]
  Tox_max_inhibition (%): 5.33%
[2]; first series of dose-response columns
  normalized signal at concentration 10: 0.56
[2]; first series
  normalized signal at concentration 0.000508053: 1.00
  normalized signal at concentration 0.00152416: 1.04
  normalized signal at concentration 0.00457247: 1.07
  normalized signal at concentration 0.0137174: 1.02
  normalized signal at concentration 0.0411523: 1.04
  normalized signal at concentration 0.123457: 0.97
  normalized signal at concentration 0.37037: 0.92
  normalized signal at concentration 1.11111: 1.13
  normalized signal at concentration 3.33333: 0.83
[2]; sheet 2nd round, Broad compounds, dose response
  IC50: > 10 µM
[2]; second series of dose-response columns
  normalized signal at concentration 10: 0.51
[2]; second series
  normalized signal at concentration 0.000508053: 1.07
  normalized signal at concentration 0.00152416: 0.85
  normalized signal at concentration 0.00457247: 1.01
  normalized signal at concentration 0.0137174: 0.97
  normalized signal at concentration 0.0411523: 1.21
  normalized signal at concentration 0.123457: 1.03
  normalized signal at concentration 0.37037: 1.11
  normalized signal at concentration 1.11111: 0.90
  normalized signal at concentration 3.33333: 0.91
[2]; [3]
  PbLuc_max_inhibition (%): 49%
